Experimental data as given in patent publication US9814720B2, “Compositions and methods of inhibiting IL-17 expression of neutrophils” (priority 2014, dated 2017).

Assays:
RORγt = RORγt nuclear translocation in IL-6/23-stimulated murine neutrophils (confocal imaging); assay type: cell-based, C57BL/6 mice; settings: IL-6+IL-23 stimulated, inhibitor 20 μM, FIG. 4D
Description: Total bone marrow-derived cells were isolated from mouse femurs and tibias by flushing with RPMI and an 18-gauge needle. Erythrocytes were lysed with 1× lysis buffer (eBioscience), and bone marrow cells were separated on a Percoll (Fisher) gradient by density centrifugation (52%, 69%, and 78%). Cells at the 69-78% interface were harvested, and neutrophil purity (>98%) confirmed by flow cytometry and Wright-Giemsa staining. Murine or human neutrophils were suspended at a density of 10^6 cells/ml and incubated with […] of recombinant mouse or human IL-6 and 2 μg/ml IL-23 in RPMI, and the cells were maintained for 1-3 h at 37° C. in 5% CO2. Various inhibitors were used for assessing STAT3 activation. […] For the determination of RORγt-dependent signaling, SR1001 (20 μM; Sigma) was used, which inhibits RORγt binding to the IL-17 promoter site. All inhibitors were added to neutrophils 2 h prior to recombinant IL-6 and IL-23 stimulation. Corneas were dissected and incubated for 1 h at 37° C. in collaganese (80 U/ml) (C0130; Sigma-Aldrich), and washed in FACS buffer (PBS+1% FBS+0.5% Sodium azide). Ten corneas were pooled and analyzed by intracellular flow cytometry. Conversely, bone marrow cells or neutrophils were collected as described above and washed in FACS buffer. […] Cells were analyzed using a C6 Accuri flow cytometer (BD). […]

IL-17RC = IL-17RC gene expression by qPCR in IL-6/23-stimulated human neutrophils; assay type: cell-based; settings: IL-6/23 1 h, FIG. 6B
Procedure: Neutrophils were isolated from peripheral blood of healthy donors. Peripheral blood was incubated in 3% Dextran, and neutrophils isolated by Ficoll gradient centrifugation (Fisher Scientific), with neutrophil purity determined by staining with Wright-Giemsa.
Murine or human neutrophils were suspended at a density of 10^6 cells/ml and incubated with […] of recombinant mouse or human IL-6 and 2 μg/ml IL-23 in RPMI, and the cells were maintained for 1-3 h at 37° C. in 5% CO2. Various inhibitors were used for assessing STAT3 activation. For STAT3, neutrophils were treated with either the STAT3-SH2 inhibitor, Stattic (20 μM) obtained from Tocris, or the JAK-1, 2 inhibitor, INC424, (aka Ruxolitinib; 20 μM (Selleck BioChem)). For the determination of RORγt-dependent signaling, SR1001 (20 μM; Sigma) was used, which inhibits RORγt binding to the IL-17 promoter site. All inhibitors were added to neutrophils 2 h prior to recombinant IL-6 and IL-23 stimulation.
Neutrophil and corneal cell RNA was extracted using the RNeasy mini kit according to the manufacturer's directions (Qiagen, Valencia, Calif.). The quality of RNA was checked by spectrophotometry, and only samples with a 260/280 ratio of 2.0 were used to generate cDNA. The SuperScript First Strand synthesis system (Invitrogen) was used to generate cDNA according to the manufacturer's directions.
The SYBR green system (Applied Biosystems, Carlsbad, Calif.) was utilized for quantitative PCR (qPCR) using ABI Biosystems. PCR products were then run on a 1% agarose gel, and visualized using ethidium bromide. PCR products were compared to Actb (encoding the β-actin gene) or GAPDH as the controls for gel loading.

A. fumigatus hyphae = assay: In vitro fungal killing assay (hyphal coincubation) with murine neutrophils; assay type: cell-based, Aspergillus fumigatus; settings: IL-6/23-stimulated, inhibitor 20 μM, FIG. 6D
Description: Aspergillus strains—For cornea infections and in vitro fungal killing assays, an RFP expressing strain of A. fumigatus (Af-dsRed) was used. This strain is gpdA promoter driven to constitutively express monomeric dsRed. For subcutaneous “priming” injections, heat-killed, swollen conidia Aspergillus fumigatus strain Af-BP was used. For the Aspergillus hyphal extract used in ROS assay, A. fumigatus strain Af-BP hyphae were pulverized in liquid nitrogen, filtered through a 30 μm pre-separation filter (Miltenyi Biotec) and protein measured by the BCA method (Pierce). Aspergillus hyphal extracts (AspHE) were stored at −20° C. and used at a final concentration of 1 mg/ml.
A hyphal coincubation assay was used to study the ability of murine and human neutrophils to inhibit A. fumigatus hyphal growth as described. Briefly, 12,500 A. fumigatus dsRed expressing conidia (strain Af-dsRed) per 200 μl Sabouraud dextrose media were added to wells of black-walled 96 well plates with an optically clear bottom (CoStar 3720). After 6 h, the conidia had germinated and the hyphae became adherent to the wells, at which time the medium was removed.
Murine and human neutrophils were incubated with p-STAT3 (20 μM Stattic or 20 μM INC424) or RORγt inhibitors (20 μM SR1001) for 2 h. Then the cells were stimulated with […] of rIL-6 and 2 μg/ml of rIL-23 for 3 h, washed, and 2×10^5 bone marrow-derived murine neutrophils or 10^5 human peripheral blood neutrophils, with or without recombinant IL-17A, were added to each well with growing hyphae. RPMI media was used as positive control (unimpaired growth), and PBS was used as a negative control (no growth (data not shown)). After 16 h the wells were washed with PBS and the dsRed fungal mass was quantified in a 96-well fluorometer at 550/600 nm excitation/emission filter (Synergy HT, Biotek).

O=[N+]([O-])c1ccc2c(c1)S(=O)(=O)C=C2 [Stattic]
RORγt localisation (cytoplasm vs nucleus) (RORγt): only detected in the cytoplasm | IL-17RC expression (IL-17RC): did not inhibit | hyphal killing activity (A. fumigatus hyphae; plus rIL-17A): enhanced hyphal killing activity was detected | hyphal growth (fluorescent fungal mass) (A. fumigatus hyphae; without rIL-17A): did not further impede hyphal growth
